Patent US9884856B2, “Crystal form of Dabrafenib mesylate and preparation method thereof” (Hangzhou Pushai Pharmaceutical Technology Co., LTD., priority 2013, dated 2018)
“And” between values parts separate entries of the source, which are not always exact repeats. Equal entries are not always repeated. “Also recorded” adds a separate entry of the source.

How the values were obtained:
[1] = Dissolution profile in ultrapure water (HPLC); type: physicochemical; conditions: for Dissolution: ultrapure water
Experimental: The analysis data of high performance liquid chromatography (HPLC) are collected by Agilent 1260 with the chemical working station of B.04. The corresponding HPLC parameters in this research are: chromatographic column SB-C18 250×4.6 mm 5 μm; column temperature 35° C.; flow rate 0.6 mL/min; flow phase as shown below; wavelength 254 nm; sample inject volume 20 μl; operation time 30 min.
The comparison of dissolution profiles is performed by the following procedures: place about 6 mg the sample in a […], add 15 mL ultrapure water, and then seal the vial. A suspension is obtained from sonication with a working power of 40 Khz at room temperature, then take 1 mL of the suspension at 10 min, 30 min, 2 hr and 6 hr, respectively; filter it with 0.45 μm organic filter membrane to, take the filtrate to be measured by HPLC; stir the remaining suspension for 16 hr at room temperature, and then filter it with 0.45 μm organic filter membrane, take the filtrate to be measured by HPLC. FIG. 15 is the comparison plot of dissolution profiles of Crystal Form IV and the Known Crystal Form I in Experimental Example 1 (▴ refers to Crystal Form IV, ▮ refers to the Known Crystal Form I).

[2] = Stirring test in water (XRPD comparison); type: physicochemical; conditions: methanesulfonate; for Stirring test in water: form after stirring: 10 mg in 1 mL water; for Stability in water or aqueous system(s): general statement
Experimental: (§1) The stability is performed by comparing the storage stability and the stirring test in water on crystalline forms.
The stirring test in water is performed by, for each crystalline form, adding an equal amount of the sample (10 mg) to an equal amount of water (1 mL) to form a suspension, stirring the suspensions for a certain time at room temperature, and then comparing their XRPDs.

[3] = Hygroscopicity by dynamic vapor sorption (DVS); type: physicochemical
Experimental: The dynamic vapor sorption analysis (DVS) data are collected by TA Instruments Q5000 TGA; the instrument control software is Thermal Advantage and the analysis software is Universal Analysis. Generally, take 1˜10 mg of the sample and place it in a platinum pan, and the weight changes of the sample are recorded during the course of the relative humidity changing from 0% to 80% and then to 0%. According to the specifics of the samples, different adsorption and desorption steps may be used.
Compare hygroscopicity in weight changes of samples between 20%-80% RH obtained by DVS tests.

[4] = Storage stability of crystal forms (XRPD before and after placement); type: physicochemical; conditions: methanesulfonate
Experimental: as §1
The storage stability is performed by placing the samples under a constant condition (i.e. under constant humidity or constant temperature) for a certain period of time, and then comparing their XRPDs before and after placement.

[5] = Stability during wet granulation in formulation process (XRPD); type: physicochemical; conditions: methanesulfonate; for Form of API in wet granule sample (XRPD): wet granulation with 50% aqueous ethanol, lactose monohydrate, microcrystalline cellulose
Excerpt: The stability of the Known Crystal Form I of Dabrafenib methanesulfonate and Crystal Form IV of the present invention during wet granulation in formulation process was studied.
Wet granulation experiments in the formulation process were parallel experiments. The specific steps are:
1) Blend API (the Known Crystal Form I or Crystal Form IV of the present invention), lactose (monohydrate) and microcrystalline cellulose uniformly.
2) Make the above mixture into soft materials by using appropriate amount of 50% aqueous ethanol solution, screen to produce wet granules.
3) Dry the wet granules and then granulate them, blend with polyethylene glycol 6000 uniformly and then compress them into tablets.
Characterize the Known Crystal Form I and Crystal Form IV of the present invention samples obtained from the formulation process of: (1) the sample obtained from physically mixing lactose monohydrate and microcrystalline cellulose at the ratios per the formulation; (2) the sample obtained from physically mixing of API, lactose monohydrate and microcrystalline cellulose at the ratios per the formulation; (3) the wet granule sample obtained from the wet granulation process (excluding the compressed tablets in Step 3). See XRPDs in FIG. 16 and FIG. 17.

[6] = test system: one or more Raf-family kinases; conditions: disclosed in WO2009/137391 and CN200980126781.6; cited from earlier work
[7] = Decomposition temperature by TGA; type: physicochemical; conditions: methanesulfonate
Experimental: The thermogravimetric analysis (TGA) data are collected by TA Instruments Q500 TGA; the instrument control software is Thermal Advantage and the analysis software is Universal Analysis. Generally, take 5˜15 mg sample and place it in a platinum pan, adopt the segmental high-resolution testing mode, and under the protection of 50 mL/min dry N2, heat the sample from room temperature to 350° C. at the heating rate of 10° C./min, the weight changes of the sample during the course are recorded by TA software simultaneously.
Compare decomposition temperatures obtained by TGA tests.

BRAFV600E-mutan melanoma = conditions: patients with BRAFV600E-mutan melanoma; cited from earlier work
[8] = 6 hours + 16 hours stirring at room temperature, methanesulfonate
[9] = sonication, room temperature, 10 minutes, methanesulfonate
[10] = sonication, room temperature, 30 minutes, methanesulfonate
[11] = sonication, room temperature, 2 hours, methanesulfonate
[12] = sonication, room temperature, 6 hours, methanesulfonate
[13] = stirred 15 min at room temperature
[14] = stored for 1 month at room temperature - 97% RH
[15] = stored for 1 month at room temperature

Compound	Dissolution [1, 8]	Dissolution [1, 9]	Dissolution [1, 10]	Dissolution [1, 11]	Dissolution [1, 12]	Stirring test in water: form after stirring [2, 13]	Stability in water or aqueous system(s) [2]	Storage stability (crystal form) [4, 14]	Storage stability (crystal form) [4, 15]	Stability in the wet granulation process [5]	Form of API in wet granule sample (XRPD) [5]	other results
CC(C)(C)c1nc(-c2cccc(NS(=O)(=O)c3c(F)cccc3F)c2F)c(-c2ccnc(N)n2)s1 [Known Crystal Form I, N-[3-[5-(2-amino-4-pyrimidinyl)-2-(tert-butyl)-thiazol-4-yl]-2-fluorophenyl]-2,6-difluorobenzene sulfonamide methanesulfonate, reference compound]	7.48e-05 mg/mL	0.00012 mg/mL	7.23e-05 mg/mL	9.28e-05 mg/mL	8.88e-05 mg/mL	consistent with the above-mentioned Dabrafenib free base hydrate; also recorded: converted to its free base; also recorded: converts to its free base monohydrate; also recorded: min, it converted to the free	readily converts to free base	remained unchanged and 97% RH, respectively, the crystal forms remained unchanged.	remained unchanged and 97% RH, respectively, the crystal forms remained unchanged.	unstable	partially or totally converted to Dabrafenib free base hydrate	Form stability under humidity ([3]; 25° C. and 20-80% RH, methanesulfonate): stable at 25 °C and 20-; Hygroscopicity ([3]; DVS): Non-hygroscopic; the form is
CC(C)(C)c1nc(-c2cccc(NS(=O)(=O)c3c(F)cccc3F)c2F)c(-c2ccnc(N)n2)s1 [Dabrafenib methanesulfonate, N-[3-[5-(2-amino-4-pyrimidinyl)-2-(tert-butyl)-thiazol-4-yl]-2-fluorophenyl]-2,6-difluorobenzene sulfonamide methanesulfonate]	–	–	–	–	–	–	–	–	–	–	–	Inhibitory effects on Raf-family kinases [6]: exhibited inhibitory effects
CC(C)(C)c1nc(-c2cccc(NS(=O)(=O)c3c(F)cccc3F)c2F)c(-c2ccnc(N)n2)s1 [Crystal Form II, N-[3-[5-(2-amino-4-pyrimidinyl)-2-(tert-butyl)-thiazol-4-yl]-2-fluorophenyl]-2,6-difluorobenzene sulfonamide methanesulfonate]	–	–	–	–	–	–	–	–	–	–	–	Decomposition temperature [7]: 287 °C
CC(C)(C)c1nc(-c2cccc(NS(=O)(=O)c3c(F)cccc3F)c2F)c(-c2ccnc(N)n2)s1 [Crystal Form IV, N-[3-[5-(2-amino-4-pyrimidinyl)-2-(tert-butyl)-thiazol-4-yl]-2-fluorophenyl]-2,6-difluorobenzene sulfonamide methanesulfonate]	0.000178 mg/mL	0.000532 mg/mL	0.000303 mg/mL	0.000376 mg/mL	0.000488 mg/mL	still remained as methanesulfonate; also recorded: still remains its Crystal Form IV of methanesulfonate; also recorded: remained as methanesulfonate and after	better stability in water or aqueous system(s)	remained unchanged and stable and 97% RH, respectively, the crystal forms remained unchanged.	remained unchanged and stable and 97% RH, respectively, the crystal forms remained unchanged.	stable	remained as Crystal Form IV	Dissolution rate / dissolution quantity compared with the Known Crystal Form I ([1]; 0~22 h, any test point, methanesulfonate): higher than that of the Known Crystal Form I at any test point; also recorded: larger than that of the Known Crystal Form I at any test point; Time to the end point in water during dissolution ([1]; compared with the Known Crystal Form I): Form IV is shorter than that of the Known Crystal Form I.; Stirring test in water: form after stirring ([2]; stirred overnight at room temperature): converted to its free base; also recorded: converts to its free base monohydrate; also recorded: free base (FIG. 14); Weight change (dynamic vapor sorption) ([3]; between 20% RH-80% RH): 2.0%
CC(C)(C)c1nc(-c2cccc(NS(=O)(=O)c3c(F)cccc3F)c2F)c(-c2ccnc(N)n2)s1 [Dabrafenib]	–	–	–	–	–	–	–	–	–	–	–	Safety profile (BRAFV600E-mutan melanoma): acceptable safety profile; Therapeutic activity (BRAFV600E-mutan melanoma): has therapeutic activities
